Experimental data published in PMC7468280 (Scientific Reports, 2020).
“Also recorded” adds a separate entry of the source. Read-outs that look alike come from different tables or passages of the source. Positions of bridges follow the written chain, without caps; N, C: chain ends. Non-standard residues stand in square brackets, D forms with d. Residues, ends and D or L forms follow the SMILES beside them. No end group written: not given here.

Tests used:
[1] = 90% human serum in Hanks Balanced Salt Solution (HBSS); settings: 37 °C, up to 24 h
HIV-1BaL [2] = settings: human colorectal explants, p24 ELISA, mean ± SEM of three independent experiments in triplicate
Stability in human serum = format: in vitro ADME; settings: 1 mg/ml peptide, 90% human serum in HBSS, 37 °C, HPLC at 220 nm, three replicates (b16 says human plasma)
Procedure: Figure 3 Representation of the percentage of peptide that remains in solution with respect to the initial one at different times. The percentage is calculated by dividing the area (HPLC analysis) at time “t” by the initial area of the peptide in the test conditions. Bar errors represents SEM of three replicates. Software GraphPad Prism 5.0 (https://graphpad-prism.software.informer.com/5.0/) was used.
The stability of E1P47 peptides was studied in human serum, a protease-rich media. Briefly, a concentration of 1 mg/ml of each peptide was incubated with 90% human serum in Hanks Balanced Salt Solution (HBSS) at 37 °C and aliquots of 40 µl were taken at different time-points during 24 h and treated with 200 µl of methanol to immediately precipitate the serum proteins. After 30 min of centrifugation at 4 °C, the supernatant was analysed by HPLC at 220 nm to calculate the content of intact peptide in each sample and by UPLC/MS to identify the main metabolites generated after the enzymatic hydrolysis.

HIV-1BaL [3] = settings: read-out: IC50 against HIV-1BaL, TZM-bl cells sustained, peptide 1 h before virus, 48 h culture in presence of drug (sustained), luciferase, mean ± SEM of three independent experiments in triplicate
[4] = read-out: IC50 against HIV-1BaL, colorectal explants pulse, peptide 1 h before and 2 h during virus (3 h pulse), washed, 15 days culture without drug
[5] = read-out: IC50 against HIV-1BaL, colorectal explants sustained, peptide before and during virus and throughout 15 days culture (sustained)

| Compound | cleaved bond [1] | not cleaved [1] | IC50 (HIV-1BaL [2]; [4]) | IC50 (HIV-1BaL [2]; [5]) | stability to human plasma/serum proteases (in words) (Stability in human serum; up to 24 h) | IC50 (HIV-1BaL [3]) | metabolised at 8 h, 1 mg/ml (Stability in human serum; 8 h, methanol precipitation, read-out: peptide degraded at 8 h) |
| --- | --- | --- | --- | --- | --- | --- | --- |
| WILEYLWKVPFDFWKGVI-NH2 | Trp7-K8, major | intact | – | – | – | – | – |
| CC[C@@H](C)[C@@H](N)C(=O)N[C@@H](C(=O)NCC(=O)N[C@H](CCCNC(=N)N)C(=O)N[C@H](Cc1c[nH]c2ccccc12)C(=O)N[C@H](Cc1ccccc1)C(=O)N[C@H](CC(=O)O)C(=O)N[C@H](Cc1ccccc1)C(=O)N1CCC[C@@H]1C(=O)N[C@@H](C(=O)N[C@H](CCCCN)C(=O)N[C@H](Cc1c[nH]c2ccccc12)C(=O)N[C@H](CC(C)C)C(=O)N[C@H](Cc1ccc(O)cc1)C(=O)N[C@H](CCC(=O)O)C(=O)N[C@H](CC(C)C)C(=O)N[C@@H](C(=O)N[C@H](Cc1c[nH]c2ccccc12)C(N)=O)[C@H](C)CC)C(C)C)C(C)C [RE-E1P47] (H-[dI][dV]G[dR][dW][dF][dD][dF][dP][dV][dK][dW][dL][dY][dE][dL][dI][dW]-NH2) | – | – | 28.7 ± 23.2 µM | 3.7 ± 1.7 µM | remained practically unaltered for almost 24 h | – | – |
| WILEYLWKVPFDFWRGVI-NH2 | Phe11-D12, major | intact | – | – | – | – | – |
| CC[C@H](C)[C@H](NC(=O)[C@@H](NC(=O)CNC(=O)[C@@H]1CCCCNC(=O)C[C@H](NC(=O)[C@H](Cc2ccccc2)NC(=O)[C@@H]2CCCN2C(=O)[C@@H](NC(=O)[C@H](CCCCN)NC(=O)[C@H](Cc2c[nH]c3ccccc23)NC(=O)[C@H](CC(C)C)NC(=O)[C@H](Cc2ccc(O)cc2)NC(=O)[C@H](CCC(=O)O)NC(=O)[C@H](CC(C)C)NC(=O)[C@@H](NC(=O)[C@@H](N)Cc2c[nH]c3ccccc23)[C@@H](C)CC)C(C)C)C(=O)N[C@@H](Cc2ccccc2)C(=O)N[C@@H](Cc2c[nH]c3ccccc23)C(=O)N1)C(C)C)C(N)=O [StP1-E1P47] (H-WILEYLWKVPFDFWKGVI-NH2; lactam 12-15) | – | – | 33 ± 27.4 µM | 2.8 ± 0.5 µM | – | 0.11 ± 0.01 µM | – |
| CC[C@H](C)[C@H](NC(=O)[C@@H](NC(=O)CNC(=O)[C@H](CCCNC(=N)N)NC(=O)[C@H](Cc1c[nH]c2ccccc12)NC(=O)[C@H](Cc1ccccc1)NC(=O)[C@H](CC(=O)O)NC(=O)[C@H](Cc1ccccc1)NC(=O)[C@@H]1CCCN1C(=O)[C@@H](NC(=O)[C@H](CCCCN)NC(=O)[C@H](Cc1c[nH]c2ccccc12)NC(=O)[C@H](CC(C)C)NC(=O)[C@H](Cc1ccc(O)cc1)NC(=O)[C@H](CCC(=O)O)NC(=O)[C@H](CC(C)C)NC(=O)[C@@H](NC(=O)[C@@H](N)Cc1c[nH]c2ccccc12)[C@@H](C)CC)C(C)C)C(C)C)C(N)=O [E1P47] (H-WILEYLWKVPFDFWRGVI-NH2) | – | – | 38.5 ± 17.2 µM | 8 ± 4.6 µM | – | 0.76 ± 0.08 µM | ~50% |
| CC[C@H](C)[C@H](NC(=O)[C@@H](NC(=O)CNC(=O)[C@H](CCCNC(=N)N)NC(=O)[C@H](Cc1c[nH]c2ccccc12)NC(=O)[C@H](Cc1ccccc1)NC(=O)[C@H](CC(=O)O)NC(=O)[C@H](Cc1ccccc1)NC(=O)[C@@H]1CCCN1C(=O)[C@@H](NC(=O)[C@@H]1CCCCNC(=O)CC[C@H](NC(=O)[C@H](CC(C)C)NC(=O)[C@@H](NC(=O)[C@@H](N)Cc2c[nH]c3ccccc23)[C@@H](C)CC)C(=O)N[C@@H](Cc2ccc(O)cc2)C(=O)N[C@@H](CC(C)C)C(=O)N[C@@H](Cc2c[nH]c3ccccc23)C(=O)N1)C(C)C)C(C)C)C(N)=O [StP2-E1P47] (H-WILEYLWKVPFDFWRGVI-NH2; lactam 4-8) | – | – | 32 ± 15.5 µM | 2.9 ± 0.4 µM | – | 0.16 ± 0.01 µM | – |
| WILEYLWKVPFDFWRGVI | Glu4-Y5, major; also recorded: Gly16-V17, major; also recorded: Trp1-I2, major; also recorded: Phe11-D12, major; also recorded: Trp7-K8, major | – | – | – | – | – | – |
